This is an account of results in patent US12558386B2, “Methods and compositions to modulate antibiotic resistance and gastrointestinal microbiota” (OHIO STATE INNOVATION FOUNDATION, priority 2018, dated 2026).

One test deals with fecal microbiota. Kind of test: Chicken study, probiotics and ESBL E. coli followed by oral or injected Amp (FIG. 6). Format: in vivo, chickens. The following applies: Group 7 and Group 5, with or without ESBL E. coli inoculation. An excerpt:
FIGS. 6A and 6B show probiotics and ESBL inoculation on the profiles of poultry fecal microbiota followed by oral or injective antibiotic treatment. FIG. 6A) Phylum level; FIG. 6B) Class level. Group 1: probiotic cocktail treatment throughout, E coli exposure from Day 5 for 4 days and then oral Amp; Group 2: probiotic/peanut butter treatment throughout followed by E coli exposure and then oral Amp; Group 3: inoculated (E coli) then exposed to oral Amp, Group 4: noninoculated then exposed to oral Amp, Group 5: noninoculated then exposed to injective Amp, Group 6: noninoculated then exposed to saline; Group 7: inoculated (E coli) then exposed to injective Amp.
It was recognized that even if antibiotic resistant bacteria may be reduced by probiotic treatment, some of those resistant bacteria seeds might still retain in the microbiota, and could pop up again when exposed to antibiotics. Therefore in another set of the experiment, following probiotic and ESBL E. coli exposure, the chickens were further treated with Amp by oral or muscle injection. […] But Probiotic treated chickens (Group 1 &2) retained more Firmicutes or Cynobacteria than chickens without probiotic treatment (Group 3 with inoculated ESBL E. coli & Group 4 natural flora, with one outlier). […]

Another test has as its system Three Amp^r E. coli. Kind of test: MIC assessment, summary for the three strains. The conditions noted are these: E. coli CA-1, CA-4 and CA-20 together. In kind it is cell-based, Escherichia coli. The procedure:
Bacterial strains. Multiple Amp^r strains from feces of broiler chickens without antibiotic treatment were recovered on Columbia blood Agar base (Becton, […] Dickinson and Company, Franklin Lakes, NJ) supplemented with 5% defibrinated sheep blood (Thermo Scientific™, Grand Island, NY). The strains were maintained in Columbia broth (Becton Dickinson and Company, Franklin Lakes, NJ), and propagated by aerobic growth at 37° C., and further subjected to strain identification and Minimum Inhibition Concentration (MIC) assessments.
Minimum inhibition concertation (MIC) assessment. A TREK Sensititre diagnostic system (Thermo scientific, Oakwood Village, OH, USA) was used to assess the AR phenotype and MIC of isolated strains. Protocols to use this system can be found on www.trekds.com. Cation-adjusted Mueller Hinton Broth (Becton, Dickinson and Company, MD, USA) was used as basic medium.

In a further test the test system is poultry gut microbiota. Kind of test: Impact of ampicillin administration routes on poultry gut microbiota (FIG. 7). In kind it is in vivo, chickens. The following applies: Day 25. An excerpt:
(A) NI-Saline-PO; (B) NI-Amp-IM; (C) NI-Amp-PO; (D) Amp-IM; (E) Amp-PO.
The impact of ampicillin administration routes and inoculation of Amp^r E. coli on poultry gut microbiota. FIG. 7A-B illustrates the impact of ampicillin application on gut microbiota of chickens. The data illustrated that without antibiotic application (FIG. 7A), Lactobacillus dominant, E. coli/Shegilla insignificant. […] The results clearly illustrated the major impact on oral ampicillin administration on poultry gut microbiota by diminishing Lactobacillus, increasing Clostridium, and massively increase […] due to Amp^r E. coli in inoculated chickens and Klebsiella in non-inoculated chickens.

Turning to `CC1(C)S[C@@H]2[C@H](NC(=O)[C@H](N)c3ccccc3)C(=O)N2[C@H]1C(=O)O` [AMP, ampicillin], in the test with fecal microbiota, the “retention of Firmicutes, injection versus oral” value was “significant difference in retaining Firmicutes”. Further, the “resistance phenotype from MIC, in words” value in the test with Three Amp^r E. coli is “high resistance”. In addition, the “change of gut microbiota” value with poultry gut microbiota (muscle injection, inoculated with E. coli cocktail (FIG. 7D)) is “Firmicutes still dominant but with which Lactobacillus drastically reduced”; with poultry gut microbiota (muscle injection, without inoculation of E. coli cocktail (FIG. 7B)), “minimal changes”; in the test on poultry gut microbiota (oral feeding, inoculated with E. coli cocktail (FIG. 7E)) it was “Firmicutes changed from dominant to minority”; in the test with poultry gut microbiota (oral, without inoculation of E. coli cocktail (FIG. 7C)) it was “decrease of Firmicutes (still dominant) and significant increase of Proteobacteria”.
